Test results as given in patent publication US10301280B2 (Plexxikon Inc., priority 2012, dated 2019).

tested on: BaF3-FL KIT D816V or BaF3-FL KIT V560G/D816V cell line; assay: Cell-based assays of c-Kit mutant kinase activity (cell growth, ATPlite); conditions: at least one of the c-kit cell assays of Example 26
Method: The c-Kit mutant D816V inhibitors were assessed using an engineered BaF3-FL KIT D816V or BaF3-FL KIT V560G/D816V cell line. The BaF3-FL KIT D816V cell lines were created by introduction of KIT mutant (D816V) full length constructs that render the cells dependent on the introduced kinase for growth. Inhibitors of c-Kit mutant D816V kinase reduce or eliminate the mediated c-kit mutant D816V kinase activation, resulting in reduced cell proliferation of the BaF3-FL Kit mutant D816V cells. This inhibition is measured by the effect of compound concentration on cell growth to assess IC50 values. BaF3-FL KIT D816V cells were seeded at 1×10^4 cells per well of a 96 well cell culture plate in 50 μl of cell culture medium of RPMI Medium 1X (Invitrogen #11875-093) supplemented with 10% FBS (Invitrogen #10438), 1% Non Essential Amino Acids(Invitrogen #11140), 1% Penicillin Streptomycin (Invitrogen #15140), 1% L-Glutamine (Invitrogen #25030-081). Compounds were dissolved in DMSO at a concentration of 5 mM and were serially diluted 1:3 for a total of eight points and added to the cells to a final maximum concentration of 10 μM in 100 μl cell culture medium (final concentration 0.2% DMSO). Cells were also treated with Dasatinib as a positive control. The cells were incubated at 37° C., 5% CO2 for three days. ATPlite Buffer (Perkin Elmer #6016739) and substrate were equilibrated to room temperature, and enzyme/substrate Recombinant Firefly Luciferase/D-Luciferin was reconstituted. The cell plates were equilibrated to room temperature for 30 minutes, then lysed by addition of 25 uL per well of the ATPlite Reagent. The plate was mixed for 5 minutes on a plate shaker to lyse the cells. The plates were read on a Tecan Safire using Luminescence protocol modified to read 0.1 s per well. The luminescence reading assesses the ATP content, which correlates directly with cell number such that the reading as a function of compound concentration is used to determine the IC50 value.
Plasmids P75635 and P75565 were engineered for mammalian cell expression. In both plasmids, full-length human v-kit Hardy-Zuckerman 4 feline sarcoma viral oncogene homolog gene (NCBI accession NM_000222, KIT, residues M1-V976) was subcloned into the pCI-Neo vector (Promega E1841). Plasmid P75635 contains the mutation of residue Aspartic acid 816 to Valine. Plasmid P75565 contains the double mutation of residues Valine 560 to Glycine and Aspartic acid 816 to Valine. The pCI-neo Mammalian Expression Vector carries the human cytomegalovirus (CMV) immediate-early enhancer/promoter region to promote constitutive expression of KIT and contains the neomycin phosphotransferase gene, a selectable marker.
It is understood that the results of these assays may vary as assay conditions are varied. Inhibition levels determined under the conditions described herein represent a relative activity for the compounds tested under the specific conditions employed. The cell based assays are likely to show variability due to the complexity of the system and the sensitivity thereof to any changes in the assay conditions. […] In some instances, the compounds were not tested in all of the assays, or assay results were not valid.

IC50, < 10 µM:
Cc1n[nH]c(C(=O)Nc2cnc3[nH]c(-c4ccc(C(=O)N5CCSCC5)cc4)cc3c2)c1C [P-2105, 3,4-dimethyl-N-[2-[4-(thiomorpholine-4-carbonyl)phenyl]-1H-pyrrolo[2,3-b]pyridin-5-yl]-1H-pyrazole-5-carboxamide]
Cc1n[nH]c(C(=O)Nc2cnc3[nH]c(-c4cccc(C(=O)N5CCOCC5)c4)cc3c2)c1C [P-2106, 3,4-dimethyl-N-[2-[3-(morpholine-4-carbonyl)phenyl]-1H-pyrrolo[2,3-b]pyridin-5-yl]-1H-pyrazole-5-carboxamide]
Cc1n[nH]c(C(=O)Nc2cnc3[nH]c(-c4cccc(C(=O)N5CCCC5)c4)cc3c2)c1C [P-2107, 3,4-dimethyl-N-[2-[3-(pyrrolidine-1-carbonyl)phenyl]-1H-pyrrolo[2,3-b]pyridin-5-yl]-1H-pyrazole-5-carboxamide]
Cc1n[nH]c(C(=O)Nc2cnc3[nH]c(-c4ccnc(C5CC5)c4)cc3c2)c1C [P-2108, N-[2-(2-cyclopropyl-4-pyridyl)-1H-pyrrolo[2,3-b]pyridin-5-yl]-3,4-dimethyl-1H-pyrazole-5-carboxamide]
COc1cc(-c2cc3cc(NC(=O)c4[nH]nc(C)c4C)cnc3[nH]2)ccn1 [P-2109, N-[2-(2-methoxy-4-pyridyl)-1H-pyrrolo[2,3-b]pyridin-5-yl]-3,4-dimethyl-1H-pyrazole-5-carboxamide]
Cc1n[nH]c(C(=O)Nc2cnc3[nH]c(-c4ccnc(N5CCOCC5)c4)cc3c2)c1C [P-2110, 3,4-dimethyl-N-[2-(2-morpholino-4-pyridyl)-1H-pyrrolo[2,3-b]pyridin-5-yl]-1H-pyrazole-5-carboxamide]
Cc1n[nH]c(C(=O)Nc2cnc3[nH]c(-c4ccc(NS(C)(=O)=O)cc4)cc3c2)c1C [P-2111, N-[2-[4-(methanesulfonamido)phenyl]-1H-pyrrolo[2,3-b]pyridin-5-yl]-3,4-dimethyl-1H-pyrazole-5-carboxamide]
Cc1cc(C(=O)Nc2cnc3[nH]c(-c4ccc(F)cc4)cc3c2)nn1C [P-2119, N-[2-(4-fluorophenyl)-1H-pyrrolo[2,3-b]pyridin-5-yl]-1,5-dimethyl-pyrazole-3-carboxamide]
Cc1n[nH]c(C(=O)Nc2cnc3[nH]c(-c4ccncc4)cc3c2)c1C [P-2124, 3,4-dimethyl-N-[2-(4-pyridyl)-1H-pyrrolo[2,3-b]pyridin-5-yl]-1H-pyrazole-5-carboxamide]
Cc1n[nH]c(C(=O)Nc2cnc3[nH]c(-c4ccc(N5CCCC5)cc4)cc3c2)c1C [P-2125, 3,4-dimethyl-N-[2-(4-pyrrolidin-1-ylphenyl)-1H-pyrrolo[2,3-b]pyridin-5-yl]-1H-pyrazole-5-carboxamide]
CCCS(=O)(=O)Nc1cccc(-c2cc3cc(NC(=O)c4[nH]nc(C)c4C)cnc3[nH]2)c1 [P-2126, 3,4-dimethyl-N-[2-[3-(propylsulfonylamino)phenyl]-1H-pyrrolo[2,3-b]pyridin-5-yl]-1H-pyrazole-5-carboxamide]
Cc1n[nH]c(C(=O)Nc2cnc3[nH]c(-c4ccc(P(C)(C)=O)cc4)cc3c2)c1C [P-2127, N-[2-(4-dimethylphosphorylphenyl)-1H-pyrrolo[2,3-b]pyridin-5-yl]-3,4-dimethyl-1H-pyrazole-5-carboxamide]
Cc1n[nH]c(C(=O)Nc2cnc3[nH]c(-c4cccc(C#N)c4)cc3c2)c1C [P-2128, N-[2-(3-cyanophenyl)-1H-pyrrolo[2,3-b]pyridin-5-yl]-3,4-dimethyl-1H-pyrazole-5-carboxamide]
COc1cccc(-c2cc3cc(NC(=O)c4[nH]nc(C)c4C)cnc3[nH]2)c1F [P-2129, N-[2-(2-fluoro-3-methoxy-phenyl)-1H-pyrrolo[2,3-b]pyridin-5-yl]-3,4-dimethyl-1H-pyrazole-5-carboxamide]
Cc1cccc(-c2cc3cc(NC(=O)c4[nH]nc(C)c4C)cnc3[nH]2)c1 [P-2130, 3,4-dimethyl-N-[2-(m-tolyl)-1H-pyrrolo[2,3-b]pyridin-5-yl]-1H-pyrazole-5-carboxamide]
Cc1n[nH]c(C(=O)Nc2cnc3[nH]c(-c4ccc(F)cc4)cc3c2)n1 [P-2131, N-[2-(4-fluorophenyl)-1H-pyrrolo[2,3-b]pyridin-5-yl]-3-methyl-1H-1,2,4-triazole-5-carboxamide]
CCCc1cc(C(=O)Nc2cnc3[nH]c(-c4ccc(F)cc4)cc3c2)[nH]n1 [P-2132, N-[2-(4-fluorophenyl)-1H-pyrrolo[2,3-b]pyridin-5-yl]-3-propyl-1H-pyrazole-5-carboxamide]
CC(=O)Nc1ccc(-c2cc3cc(NC(=O)c4[nH]nc(C)c4C)cnc3[nH]2)cn1 [P-2133, N-[2-(6-acetamido-3-pyridyl)-1H-pyrrolo[2,3-b]pyridin-5-yl]-3,4-dimethyl-1H-pyrazole-5-carboxamide]
CCCCNC(=O)Nc1cccc(-c2cc3cc(NC(=O)c4[nH]nc(C)c4C)cnc3[nH]2)c1 [P-2134, N-[2-[3-(butylcarbamoylamino)phenyl]-1H-pyrrolo[2,3-b]pyridin-5-yl]-3,4-dimethyl-H-pyrazole-5-carboxamide]
COc1ccccc1-c1cc2cc(NC(=O)c3[nH]nc(C)c3C)cnc2[nH]1 [P-2135, N-[2-(2-methoxyphenyl)-1H-pyrrolo[2,3-b]pyridin-5-yl]-3,4-dimethyl-1H-pyrazole-5-carboxamide]
Cc1ncccc1-c1cc2cc(NC(=O)c3[nH]nc(C)c3C)cnc2[nH]1 [P-2136, 3,4-dimethyl-N-[2-(2-methyl-3-pyridyl)-1H-pyrrolo[2,3-b]pyridin-5-yl]-1H-pyrazole-5-carboxamide]
CC(=O)Nc1ccc(-c2cc3cc(NC(=O)c4[nH]nc(C)c4C)cnc3[nH]2)cc1 [P-2137, N-[2-(4-acetamidophenyl)-1H-pyrrolo[2,3-b]pyridin-5-yl]-3,4-dimethyl-1H-pyrazole-5-carboxamide]
Cc1n[nH]c(C(=O)Nc2cnc3[nH]c(-c4ccc(C(=O)N5CCOCC5)cc4)cc3c2)c1C [P-2138, 3,4-dimethyl-N-[2-[4-(morpholine-4-carbonyl)phenyl]-1H-pyrrolo[2,3-b]pyridin-5-yl]-1H-pyrazole-5-carboxamide]
Cc1nc(C)c(-c2cc3cc(NC(=O)c4[nH]nc(C)c4C)cnc3[nH]2)s1 [P-2139, N-[2-(2,4-dimethylthiazol-5-yl)-1H-pyrrolo[2,3-b]pyridin-5-yl]-3,4-dimethyl-1H-pyrazole-5-carboxamide]
Cc1n[nH]c(C(=O)Nc2cnc3[nH]c(-c4cnn(C(F)F)c4)cc3c2)c1C [P-2140, N-[2-[1-(difluoromethyl)pyrazol-4-yl]-1H-pyrrolo[2,3-b]pyridin-5-yl]-3,4-dimethyl-1H-pyrazole-5-carboxamide]
Cc1n[nH]c(CNc2cnc3[nH]c(-c4ccc(F)cc4)cc3c2)c1Cl [P-2141, N-[(4-chloro-5-methyl-1H-pyrazol-3-yl)methyl]-2-(4-fluorophenyl)-1H-pyrrolo[2,3-b]pyridin-5-amine]
